pEC50: −log10 of the molar value.
Molecular target: T1, hOX2R (Homo sapiens, UniProt O43614)
T1 construct: expressed in transfected cells; host or cells: CHO cells (G418 selection)
T1 sequence (O43614 1-444): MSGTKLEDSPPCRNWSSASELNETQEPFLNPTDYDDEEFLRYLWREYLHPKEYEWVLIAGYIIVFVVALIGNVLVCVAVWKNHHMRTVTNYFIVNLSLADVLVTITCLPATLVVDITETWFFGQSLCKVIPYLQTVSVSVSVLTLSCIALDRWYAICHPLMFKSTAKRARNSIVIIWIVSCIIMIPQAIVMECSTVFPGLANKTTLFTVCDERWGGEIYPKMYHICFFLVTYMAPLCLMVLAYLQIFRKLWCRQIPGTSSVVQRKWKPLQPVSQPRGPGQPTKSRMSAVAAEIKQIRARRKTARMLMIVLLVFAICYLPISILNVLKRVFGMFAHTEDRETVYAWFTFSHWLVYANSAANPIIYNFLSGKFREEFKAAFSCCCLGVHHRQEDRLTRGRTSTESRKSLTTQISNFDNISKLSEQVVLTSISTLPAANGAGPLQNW
Test: hOX2R IPone assay (orexin receptor agonism)
Assay type: cell-based
Settings: IPone readout; for hOX2R_Ipone max %act: maximal activation; for pEC50: orexin receptor agonist, read-out: hOX2R_IPone EC50

| hOX2R_Ipone max %act | pEC50 | SMILES |
| --- | --- | --- |
| 101.4% | 7.83 | CCN1C(=O)N[C@@H](CCC(F)(F)F)CCCCCOc2nc(nn3ccnc23)-c2ccnc(c2)[C@H]1C [Example 102, (12R,16R)-13-ethyl-12-methyl-16-(3,3,3-trifluoropropyl)-12,13,16,17,18,19,20, 21-octahydro-6,23-(azeno)-11,7-(metheno)imidazo[2,1-c][1,4,5,10,13,15] oxapentaazacycloheni-cosin-14(15H)-one] |
| 101.7% | 9.14 | CCN1C(=O)NC(CCC(F)(F)F)CCOCCOc2cn3ncnc3c(n2)-c2ccnc(c2)C1C [Example 136, (3R,7S,E)-4-ethyl-3-methyl-7-(3,3,3-trifluoropropyl)-10,13-dioxa-4,6-diaza-1(6,8)-[1,2,4]triazolo[1,5-a]pyrazina-2(4,2)-pyridinacyclotridecaphan-5-one] |
| 99.4% | 7.86 | CCN1C(=O)NCC(C(F)(F)F)N(C)CCCOc2nc(cn3ccnc23)-c2cccc(c2)C1C [Example 26A, (3R,E)-4-ethyl-3,9-dimethyl-8-(trifluoromethyl)-13-oxa-4,6,9-triaza-1(6,8)-imidazo[1,2-a]pyrazina-2(1,3)-benzenacyclotridecaphan-5-one] |
| 97.5% | 5.98 | CCN1C(=O)N[C@@H](C(F)(F)F)CCCCOc2nc(cn3ccnc23)-c2cc(ncc2OC)C1C(F)(F)F (single isomer, unassigned) [Example 39B] |
| 99.01% | 8.08 | CCN1C(=O)N[C@@H](C)C(F)(F)CCCCOc2nc(cn3ccnc23)-c2cc(ncc2OC)[C@H]1C [Example 141, (3R,7S,E)-4-ethyl-8,8-difluoro-25-methoxy-3,7-dimethyl-13-oxa-4,6-diaza-1(6,8)-imidazo[1,2-a]pyrazina-2(4,2)-pyridinacyclotridecaphan-5-one] |
| 102.9% | 8.46 | CCN1C(=O)NC2CN(CCCCOc3nc(cn4ccnc34)-c3cc(ncc3OC)[C@H]1C)CC2C(F)(F)F (single isomer, unassigned) [Example 214] |
| 64.2% | 5.99 | CCN1C(=O)NCc2nc(no2)CCOc2nc(cn3ccnc23)-c2cccc(c2)[C@H]1C [Example 23, (R,27E,64Z)-10-ethyl-11-methyl-3-oxa-8,10-diaza-6(3,5)-oxadiazola-2(6,8)-imidazo[1,2-a]pyrazina-1(1,3)-benzenacyclo-undecaphan-9-one] |
| 101.8% | 8.03 | CCN1C(=O)N[C@@H](CCC(F)(F)F)CCCCCOc2nc(cn3ccnc23)-c2cc(ncn2)C1C (stereo partly drawn) [Example 112B, (16R)-13-ethyl-12-methyl-16-(3,3,3-trifluoropropyl)-12,13,16,17,18,19,20,21-octahydro-6,23-(azeno)-11,7-(metheno)imidazo[2,1-c][1,4,8,10,13,15]oxapentaazacyclohenicosin-14(15H)-one] |
| 100.8% | 6.99 | CCN1C(=O)N[C@@H](CCC(F)(F)F)CCCCCOc2nc(cn3ccnc23)-c2cccc(n2)C1C (stereo partly drawn) [Example 90, (16R)-13-ethyl-12-methyl-16-(3,3,3-trifluoropropyl)-12,13,16,17,18,19,20, 21-octahydro-6,23:11,7-di(azeno) imidazo[2,1-c][1,4, 13,15]oxatriazacyclo-henicosin-14(15H)-one] |
| 97.69% | 6.61 | CCN1C(=O)N[C@@H](CC(F)(F)F)CCCCCOc2nc(nn3ccnc23)-c2ccnc(c2)[C@H]1C [Example 101, (12R,16R)-13-ethyl-12-methyl-16-(2,2,2-trifluoroethyl)-12,13,16,17,18,19,20, 21-octahydro-6,23-(azeno)-11,7-(metheno)imidazo[2,1-c][1,4,5,10,13,15] oxapentaazacycloheni-cosin-14(15H)-one] |
| 100.5% | 8.37 | CCN1C(=O)N[C@@H](CCC(F)(F)F)CCCCCOc2nc(nn3ccnc23)-c2cc(cnc2OC)[C@H]1C [Example 47, (3R,7R,E)-4-ethyl-22-methoxy-3-methyl-7-(3,3,3-trifluoropropyl)-13-oxa-4,6-diaza-1(2,4)-imidazo[2,1-f][1,2,4]triazina-2(3,5)-pyridinacyclotridecaphan-5-one] |
| 100.9% | 8.66 | CCN1C(=O)NC(CCCOC)CCCCCOc2nc(cn3ccnc23)-c2cc(ncc2OC)[C@H]1C (single isomer, unassigned) [Example 60B] |
| 94.5% | 5.62 | CCN1C(=O)N[C@@H](CC(F)(F)F)CCCCOc2nc(cn3ncnc23)-c2cc(ncc2OC)C1C(F)(F)F (stereo partly drawn) [Example 38, (16R)-13-ethyl-8-methoxy-16-(2,2,2-trifluoroethyl)-12-(trifluoromethyl)-12,13,15,16,17,18,19,20-octahydro-14H-6,22-(azeno)-11,7-(metheno) [1,2,4]triazolo[5,1-c][1,4,10,13,15]oxatetra-azacycloicosin-14-one] |
| 74.7% | 7.38 | CCN1C(=O)NCCCCCOc2nc(cn3ccnc23)-c2cccc(c2)[C@H]1C [Example 49, (12R)-13-ethyl-12-methyl-12,13,15,16,17,18,19,20-octahydro-14H-6,22-(azeno)-11,7-(metheno)imidazo[2,1-c][1,4,13,15]oxatriaza-cycloicosin-14-one] |
| 97.96% | 8.40 | CCN1C(=O)N[C@@H](CCC(F)(F)F)CCCCCOc2nc(nn3c(C)cnc23)-c2cc(ncc2OC)[C@H]1C [Example 124, (3R,7R,E)-4-ethyl-25-methoxy-17,3-dimethyl-7-(3,3,3-trifluoropropyl)-13-oxa-4,6-diaza-1(2,4)-imidazo[2,1-f][1,2,4]triazina-2(4,2)-pyridinacyclotridecaphan-5-one] |
| 101.7% | 8.77 | CCN1C(=O)N[C@@H](CCC(C)(F)F)CCOCCOc2nc(cn3ncnc23)-c2cc(cnc2OC)[C@H]1C [Example 148, (3R,7S,E)-7-(3,3-difluorobutyl)-4-ethyl-22-methoxy-3-methyl-10,13-dioxa-4,6-diaza-1(6,8)-[1,2,4]triazolo[1,5-a]pyrazina-2(3,5)-pyridinacyclotridecaphan-5-one] |
| 100.6% | 9.13 | CCN1C(=O)NC(COCC(F)(F)F)CCCCCOc2nc(cn3ccnc23)-c2cc(ncc2OC)[C@H]1C (stereo partly drawn) [Example 188, (3R,E)-4-ethyl-25-methoxy-3-methyl-7-((2,2,2-trifluoroethoxy)methyl)-13-oxa-4,6-diaza-1(6,8)-imidazo [1,2-a]pyrazina-2(4,2)-pyridinacyclotridecaphan-5-one] |
| 100.6% | 7.83 | CCN1C(=O)N[C@@H](CCC(F)(F)F)CCCCCOc2nc(cn3ccnc23)C2=CN=C(O2)C1C (stereo partly drawn) [Example 108, (15R)-12-ethyl-11-methyl-15-(3,3,3-trifluoropropyl)-11,12,15,16,17,18,19, 20-octahydro-6,22-(azeno)-7,10-epoxyimidazo[2,1-c][1,4,9,12,14]oxatet-raazacycloicosin-13(14H)-one] |
| 100.5% | 8.10 | CCN1C(=O)N[C@@H](CCC(F)(F)F)C/C=C\COc2nc(cn3ccnc23)-c2cccc(c2)[C@H]1C [Example 31, (1^7E,3R,7S,9Z)-4-ethyl-3-methyl-7-(3,3,3-trifluoropropyl)-12-oxa-4,6-diaza-1(6,8)-imidazo[1,2-a]pyrazina-2(1,3)-benzenacyclododecaphan-9-en-5-one] |
| 88% | 6.49 | CCN1C(=O)NCCCCOc2nc(cn3ccnc23)-c2cc(ncc2OC)[C@H]1C [Example 178, (R,E)-4-ethyl-25-methoxy-3-methyl-11-oxa-4,6-diaza-1(6,8)-imidazo[1,2-a]pyrazina-2(4,2)-pyridinacycloun-decaphan-5-one] |
| 100.6% | 8.37 | CCN1C(=O)NC(COC)CCCCCOc2nc(cn3ccnc23)-c2cc(ncc2F)[C@H]1C (stereo partly drawn) [Example 199, (3R,E)-4-ethyl-25-fluoro-7-(methoxymethyl)-3-methyl-13-oxa-4,6-diaza-1(6,8)-imidazo[1,2-a]pyrazina-2(4,2)-pyridinacyclotridecaphan-5-one] |
| 100.1% | 8.27 | CCN1C(=O)N[C@@H](CCC(F)F)CCOCCOc2nc(nn3ccnc23)-c2cc(ncc2F)[C@H]1C [Example 127, (3R,7S,E)-7-(3,3-difluoropropyl)-4-ethyl-25-fluoro-3-methyl-10,13-dioxa-4,6-diaza-1(2,4)-imidazo[2,1-f][1,2,4]triazina-2(4,2)-pyridinacyclotridecaphan-5-one] |

| SMILES | hOX2R_Ipone max %act | pEC50 |
| --- | --- | --- |
| CCN1C(=O)NCCCOCCOc2nc(cn3ccnc23)-c2cc(ncc2OC)[C@H]1C [Example 7, (12R)-13-ethyl-8-methoxy-12-methyl-12,13,15,16,17,18,20,21-octahydro-14H-6,23-(azeno)-11,7-(metheno)imidazo[2,1-f][1,4,7,13,16,18]dioxatetra-azacyclohenicosin-14-one] | 100.6% | 8.34 |
| CCN1C(=O)NC(CCC(C)(F)F)CCCCCOc2nc(c(C)n3ncnc23)-c2cc(ncc2OC)C1C [Example 172, (3R,7R,E)-7-(3,3-difluorobutyl)-4-ethyl-25-methoxy-15,3-dimethyl-13-oxa-4,6-diaza-1(6,8)-[1,2,4]triazolo[1,5-a]pyrazina-2(4,2)-pyridinacyclotridecaphan-5-one] | 101% | 8.14 |
